Data taken from patent US12679837B2, “Aminopyrimidine compound as CDK2/4/6 triple inhibitor” (CISEN PHARMACEUTICAL CO., LTD, priority 2019, dated 2026).

Experiments:
CDK2/CyclinA2 = molecular target: T1, CDK2/CyclinA2 (Homo sapiens, UniProt P24941); test: CDK2/CyclinA2 kinase activity test (ADP-Glo); assay type: biochemical; settings: 50 μM ATP, 25° C., 60 minutes; read-out: Enzyme activity data (IC50) CDK2/cyclinA
T1 construct: purchased Promega
Protocol: Experimental materials: CDK2/CyclinA2 kinase detection kit was purchased from Promega. Nivo Multilabel Analyzer (PerkinElmer).
Experimental method: Kinase buffer dilution enzyme in the kit, substrate, adenosine triphosphate and inhibitor were used. The compounds to be tested were diluted 5-fold to the 8th concentration with a row gun, that is, from 50 μM to 0.65 nM, the concentration of DMSO was 5%, and a double-replicate well experiment was set up. 1 μL of each concentration gradient of inhibitor, 2 μL of CDK2/CyclinA2 enzyme (1.6 ng), and 2 μL of a mixture of substrate and ATP (50 μM of adenosine triphosphate, 0.1 μg/μL of substrate) were added to the microplate, and at this time, the final concentration gradient of compound was diluted from 10 μM to 0.13 nM. The reaction system was placed at 25° C. and reacted for 60 minutes. After the reaction was complete, 5 μL of ADP-Glo reagent was added to each well, and the reaction was continued at 25° C. for 40 minutes. At the end of the reaction, 10 μL of kinase detection reagent was added to each well. After the reaction was continued at 25° C. for 30 minutes, the chemiluminescence was read by a multi-label analyzer with an integration time of 0.5 seconds.
Using the equation (Sample−Min)/(Max−Min)×100% to convert the original data into inhibition rate, the IC50 value can be obtained by curve fitting with four parameters (obtained by the mode of log(inhibitor) vs. response—Variable slope in GraphPad Prism). Table 1 provides the enzymatic inhibitory activities of the compounds of the present invention on CDK2/CyclinA2, CDK2/CyclinE1, CDK4/CyclinD1, CDK6/CyclinD1, CDK9/CyclinT1.

CDK6/CyclinD1 = molecular target: T2, CDK6/CyclinD1 (Homo sapiens, UniProt Q00534); test: CDK6/CyclinD1 kinase activity test (LANCE Ultra TR-FRET); assay type: biochemical; settings: 250 μM ATP, 25° C., 120 minutes; read-out: Enzyme activity data (IC50) CDK6/cyclinD1
T2 construct: purchased Carna
T2 sequence (Q00534 whole entry): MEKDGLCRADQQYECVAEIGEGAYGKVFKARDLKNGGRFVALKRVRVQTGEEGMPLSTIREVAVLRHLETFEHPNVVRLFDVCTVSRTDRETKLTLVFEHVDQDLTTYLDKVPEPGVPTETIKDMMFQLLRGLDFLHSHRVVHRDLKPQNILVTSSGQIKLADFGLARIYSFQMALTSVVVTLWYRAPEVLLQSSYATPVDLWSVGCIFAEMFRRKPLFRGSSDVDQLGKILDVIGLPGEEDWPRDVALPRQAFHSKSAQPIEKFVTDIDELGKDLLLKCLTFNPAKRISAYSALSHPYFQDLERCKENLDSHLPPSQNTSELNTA
T2 sequence (P24385 whole entry partner): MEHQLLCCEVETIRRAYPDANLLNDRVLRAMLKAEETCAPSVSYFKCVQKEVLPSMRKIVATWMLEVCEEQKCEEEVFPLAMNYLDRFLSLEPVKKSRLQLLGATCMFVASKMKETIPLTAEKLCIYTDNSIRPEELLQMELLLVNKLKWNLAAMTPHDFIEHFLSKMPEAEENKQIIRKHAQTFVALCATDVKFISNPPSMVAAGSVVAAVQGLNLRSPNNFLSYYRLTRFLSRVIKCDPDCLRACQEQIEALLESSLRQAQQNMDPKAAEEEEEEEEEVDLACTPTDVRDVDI
Protocol: Experimental materials: CDK6/CyclinD1 kinase was purchased from Carna, reaction substrate LANCE Ultra ULight™-4E-BP-1 (Thr37146) Peptide and EU-ANTI-P-4EBP1 (THR37/46) were purchased from PerkinElmer. Nivo Multilabel Analyzer (PerkinElmer).
(§1) Experimental method: preparation of kinase buffer: The components of the buffer include: 50 mM of hydroxyethylpiperazine […] solution with pH 7.5, 1 mM of EDTA, 10 mM of magnesium chloride, 0.01% lauryl polyoxyethylene ether (Brij-35), 2 mM of enzyme dithiothreitol, kinase buffer dilution enzyme, substrate LANCE Ultra ULight™-4E-BP-1 (Thr37146) Peptide, adenosine triphosphate and inhibitor. […] The reaction system was continued at 25° C. for 120 minutes. After the reaction was complete, a mixture of 5 μL of EDTA and 2× LANCE™ Detection Buffer (1:1) was added to each well, and reacted at 25° C. for 5 minutes, after the reaction was complete, 5 μL of LANCE Ultra Eu-anti-P-4E-BP1(Thr37MS) (4 nM) was added to each well, and reacted at 25° C. for 60 minutes, the reaction signal was detected by Nivo instrument according to the principle of time-resolved fluorescence resonance energy transfer.
(§2) Table 1 provides the enzymatic inhibitory activities of the compounds of the present invention on CDK2/CyclinA2, CDK2/CyclinE1, CDK4/CyclinD1, CDK6/CyclinD1, CDK9/CyclinT1.

CDK4/CyclinD1 = molecular target: T3, CDK4/CyclinD1 (Homo sapiens, UniProt P11802); test: CDK4/CyclinD1 kinase activity test (LANCE Ultra TR-FRET); assay type: biochemical; settings: 350 μM ATP, 25° C., 120 minutes; read-out: Enzyme activity data (IC50) CDK4/cyclinD1
T3 construct: purchased Invitrogen
T3 sequence (P11802 whole entry): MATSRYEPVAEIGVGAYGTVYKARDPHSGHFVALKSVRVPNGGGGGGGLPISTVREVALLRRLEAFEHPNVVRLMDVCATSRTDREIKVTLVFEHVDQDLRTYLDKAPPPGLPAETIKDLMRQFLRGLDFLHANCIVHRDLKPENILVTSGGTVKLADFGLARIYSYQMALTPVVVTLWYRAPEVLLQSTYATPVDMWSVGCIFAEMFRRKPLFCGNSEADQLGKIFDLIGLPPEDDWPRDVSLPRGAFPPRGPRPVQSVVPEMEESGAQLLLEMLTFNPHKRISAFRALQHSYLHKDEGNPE
T3 sequence (P24385 whole entry partner): as the sequence (P24385 whole entry partner) above
Protocol: Experimental materials: CDK4/CyclinD1 kinase was purchased from Invitrogen, reaction substrate LANCE Ultra ULight™-4E-BP-1 (Thr37146) Peptide and EU-ANTI-P-4EBP1 (THR37/46) were purchased from PerkinElmer. Nivo Multilabel Analyzer (PerkinElmer).
as §1, §2

CDK9/CyclinT1 = molecular target: T4, CDK9/CyclinT1 (Homo sapiens, UniProt P50750); test: CDK9/CyclinT1 kinase activity assay (ADP-Glo); assay type: biochemical; settings: 100 μM ATP, 25° C., 60 minutes; read-out: Enzyme activity data (IC50) CDK9/CyclinT1
T4 construct: purchased Carna
T4 sequence (P50750 whole entry): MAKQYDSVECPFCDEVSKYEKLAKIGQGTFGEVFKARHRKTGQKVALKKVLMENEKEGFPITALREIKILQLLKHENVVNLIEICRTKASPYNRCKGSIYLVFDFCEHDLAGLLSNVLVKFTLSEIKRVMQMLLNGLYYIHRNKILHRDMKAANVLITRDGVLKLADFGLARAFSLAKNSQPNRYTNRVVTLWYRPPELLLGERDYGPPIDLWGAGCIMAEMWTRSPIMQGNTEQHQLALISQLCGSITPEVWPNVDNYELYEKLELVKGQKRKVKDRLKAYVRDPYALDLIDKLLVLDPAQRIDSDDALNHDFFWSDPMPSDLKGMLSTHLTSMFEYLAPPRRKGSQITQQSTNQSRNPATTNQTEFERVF
T4 sequence (O60563 whole entry partner): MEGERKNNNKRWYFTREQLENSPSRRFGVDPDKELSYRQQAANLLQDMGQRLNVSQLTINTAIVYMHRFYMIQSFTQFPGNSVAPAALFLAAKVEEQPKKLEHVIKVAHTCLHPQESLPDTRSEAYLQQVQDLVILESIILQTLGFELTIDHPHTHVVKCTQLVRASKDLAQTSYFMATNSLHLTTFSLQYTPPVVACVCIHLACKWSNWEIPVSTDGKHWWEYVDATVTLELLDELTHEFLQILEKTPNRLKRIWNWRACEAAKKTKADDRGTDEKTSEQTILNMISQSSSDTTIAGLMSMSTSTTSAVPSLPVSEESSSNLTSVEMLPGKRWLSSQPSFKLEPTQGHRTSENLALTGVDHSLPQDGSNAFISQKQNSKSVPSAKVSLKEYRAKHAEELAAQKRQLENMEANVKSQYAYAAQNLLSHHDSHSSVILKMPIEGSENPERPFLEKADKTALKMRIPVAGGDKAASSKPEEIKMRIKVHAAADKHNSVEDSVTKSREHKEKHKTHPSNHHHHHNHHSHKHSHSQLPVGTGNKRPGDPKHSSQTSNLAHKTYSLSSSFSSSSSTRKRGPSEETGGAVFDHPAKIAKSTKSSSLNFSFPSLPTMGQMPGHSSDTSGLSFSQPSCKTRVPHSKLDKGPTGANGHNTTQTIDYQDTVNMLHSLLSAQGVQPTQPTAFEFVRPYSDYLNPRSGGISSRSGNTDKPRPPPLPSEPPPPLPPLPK
Protocol: Experimental materials: CDK9/CyclinT1 kinase was purchased from Carna, the ADP-Glo detection kit was purchased from Promega, the PKDTide substrate and kinase reaction buffer were purchased from Signalchem. Nivo Multilabel Analyzer (PerkinElmer).
Experimental method: Kinase buffer dilution enzyme in the kit, substrate, adenosine triphosphate and inhibitor were used. […] The reaction system was placed at 25° C. and reacted for 60 minutes. After the reaction was complete, 5 μL of ADP-Glo reagent was added to each well, and the reaction was continued at 25° C. for 40 minutes. At the end of the reaction, 10 μL of kinase detection reagent was added to each well. After the reaction was continued at 25° C. for 30 minutes, the chemiluminescence was read by a multi-label analyzer with an integration time of 0.5 seconds.
as §2

HCC1806 cells = test: HCC1806 cell activity test (CyQUANT); assay type: cell-based; settings: Homo sapiens, 168 h, 7 days, read-out: Antiproliferative activity (IC50) HCC1806
Protocol: Experimental materials: RPMI-1640 medium, fetal bovine serum, penicillin/streptomycin antibiotics were purchased from Vicente. CyQUANT Cell Proliferation Assays (Cell proliferation assay kit) reagents were purchased from ThermoFisher. The HCC1806 cell line was purchased from Cobioer Biosciences Co., Ltd. Nivo Multilabel Analyzer (PerkinElmer).
Experimental method: HCC1806 cells were seeded in a white 96-well plate, 80 μL of cell suspension per well, which contained 3000 HCC1806 cells. The cell plate was incubated overnight in a carbon dioxide incubator. The compounds to be tested were diluted 5-fold to the 9th concentration with a row gun, that is, from 10 mM to 25.6 nM, and a double-replicate well experiment was set up. 78 μL of medium was added to the middle plate, and then transferred 2 μL per well of the gradient diluted compound to the middle plate according to the corresponding position, mixed well and transferred 20 μL per well to the cell plate. […] After reaching the incubation time, the cell supernatant was removed, and the cell plate was placed in a −80° C. refrigerator for 1 hour, after which 100 μL of Cyquant reagent was added to each well, and a multi-label analyzer was used for reading. Another cell plate was prepared, and the signal value was read as the maximum value (Max value in the equation below) on the day of drug addition to participate in data analysis. […]

MDA-MB-468 cells = test: MDA-MB-468 cell activity test (CellTiter-Glo); assay type: cell-based; settings: Homo sapiens, 168 h; MDA-MB-468 cells (Rb-negative), 7 days; read-out: Antiproliferative activity (IC50) MDA-MB-468
Protocol: (§3) Experimental materials: L15 medium, fetal bovine serum, penicillin/streptomycin antibiotics were purchased from Vicente. CellTiter-Glo (chemiluminescence detection reagent for cell viability) reagent was purchased from Promega. The MDA-MB-468 cell line was purchased from Cobioer Biosciences Co., Ltd. Nivo Multilabel Analyzer (PerkinElmer).
(§4) Experimental method: MDA-MB-468 cells were seeded in a white 96-well plate, 80 μL of cell suspension per well, which contained 1000 MDA-MB-468 cells. The cell plate was incubated overnight in a carbon dioxide incubator. The compounds to be tested were diluted 5-fold to the 9th concentration with a row gun, that is, from 10 mM to 25.6 nM, and a double-replicate well experiment was set up. 78 μL of medium was added to the middle plate, and then transferred 2 μL per well of the gradient diluted compound to the middle plate according to the corresponding position, mixed well and transferred 20 μL per well to the cell plate. The concentration of compound transferred to the cell plate ranged from 50 μM to 0.128 nM. The cell plate was incubated in a carbon dioxide incubator for 7 days. Another cell plate was prepared, and the signal value was read as the maximum value (Max value in the equation below) on the day of drug addition to participate in data analysis. 25 μL of chemiluminescence detection reagent for cell viability was added to each well of the cell plate, and incubated at room temperature for 10 minutes to stabilize the luminescence signal. A multi-label analyzer was used for reading.
Data analysis: Using the equation (Sample−Min)/(Max−Min)×100% to convert the original data into inhibition rate, the IC50 value can be obtained by curve fitting with four parameters (obtained by the mode of log(inhibitor) vs. response—Variable slope in GraphPad Prism).

HCT116 cells = test: HCT116 cell activity test (CellTiter-Glo); assay type: cell-based; settings: Homo sapiens, HCT-116, 96 h, 4 days, read-out: Antiproliferative activity (IC50) HCT 116
Protocol: as §3, with “McCoy' 5a” for “L15”, “serum, and” for “serum,”, “HCT116” for “MDA-MB-468”
as §4, with “method: HCT116” for “method: MDA-MB-468”, “1000 HCT116” for “1000 MDA-MB-468”, “from 2” for “from 10”, “to 5.12” for “to 25.6”, “plate. […]” for “plate. The concentration of compound transferred to the cell plate ranged from 50 μM to 0.128 nM. The cell plate was incubated in a carbon dioxide incubator for 7 days.”, “reading. […]” for “reading.”

IC50 (CDK2/CyclinA2) [nM]	IC50 (CDK6/CyclinD1) [nM]	IC50 (CDK4/CyclinD1) [nM]	IC50 (CDK9/CyclinT1) [nM]	IC50 (HCC1806 cells) [nM]	IC50 (MDA-MB-468 cells) [nM]	IC50 (HCT116 cells) [nM]	SMILES
1.18	4.74	23.6	–	–	–	–	C[C@@]1(O)CCC[C@H]1N1C(=O)CCc2cnc(NC3CCN(S(=O)(=O)C4CC4)CC3)nc21 [Compound 3]
–	–	–	17.2	458	120	140	C[C@@]1(O)CCC[C@H]1n1c(=O)c(C(F)F)cc2cnc(NC3CCN(S(C)(=O)=O)CC3)nc21 [PF-06873600, reference compound]
1.74	8.95	46.9	–	–	–	–	CC(C)S(=O)(=O)N1CCC(Nc2ncc3c(n2)N([C@@H]2CCC[C@@]2(C)O)C(=O)CC3)CC1 [Compound 5]
1.52	2.65	9.09	–	–	–	–	CN1CC(S(=O)(=O)N2CCC(Nc3ncc4c(n3)N([C@@H]3CCC[C@@]3(C)O)C(=O)CC4)CC2)C1 [Compound 10]
1.4	3.69	15.7	–	–	–	–	CC(C)N1CC(S(=O)(=O)N2CCC(Nc3ncc4c(n3)N([C@@H]3CCC[C@@]3(C)O)C(=O)CC4)CC2)C1 [Compound 9]
1.32	5.42	37.5	–	–	–	–	CCS(=O)(=O)N1CCC(Nc2ncc3c(n2)N([C@@H]2CCC[C@@]2(C)O)C(=O)CC3)CC1 [Compound 4]
1.4	1.52	3.99	–	–	–	–	C[C@@]1(O)CCC[C@H]1N1C(=O)CCc2cnc(NC3CCN(S(=O)(=O)C4CNC4)CC3)nc21 [Compound 7]
1.13	5.26	38.1	–	–	–	–	COCCS(=O)(=O)N1CCC(Nc2ncc3c(n2)N([C@@H]2CCC[C@@]2(C)O)C(=O)CC3)CC1 [Compound 6]
1.78	3.4	14.9	–	–	–	–	CCN1CC(S(=O)(=O)N2CCC(Nc3ncc4c(n3)N([C@@H]3CCC[C@@]3(C)O)C(=O)CC4)CC2)C1 [Compound 8]
